Results published in paper PMC8398766, “Do Small Molecules Activate the TrkB Receptor in the Same Manner as BDNF? Limitations of Published TrkB Low Molecular Agonists and Screening for Novel TrkB Orthosteric Agonists” (Pharmaceuticals, 2021).
“Also recorded” adds a separate entry of the source.

B1: BDNF: Brain-derived neurotrophic factor, endogenous TrkB receptor agonist (protein, UniProt P23560 19-247, looked up)
Neurotrophic factor BDNF …: APMKEANIRGQGGLAYPGVRTHGTLESVNGPKAGSRGLTSLADTFEHVIEELLDEDQKVRPNEENNKDADLYTSRVMLSSQVPLEPPLLFLLEEYKNYLDAANMSMRVRRHSDPARRGELSVCDSISEWVTAADKKTAVDMSGGTVTVLEKVPVSKGQLKQYFYETKCNPMGYTKEGCRGIDKRHWNSQCRTTQSYVRALTMDSKKRIGWRFIRIDTSCVCTLTIKRGR

Legend:
exTrkB = molecular target: T1, exTrkB (Homo sapiens, UniProt Q16620); assay: MST binding affinity (Kd) determination; conditions: non-binding compounds given as 0
T1 construct: human TrkB receptor (exTrkB), residues 1−430, was cloned into the pCMV2 expression vector; made in house; host or cells: ExpiCHO-S cells
Protocol: The gene encoding the extracellular domain of the human TrkB receptor (exTrkB), residues 1−430, was cloned into the pCMV2 expression vector. Protein expression was performed in suspension-cultivated mammalian ExpiCHO-S cells using the ExpiFectamine (Thermo Scientific, Thermo Fisher Scientific, Waltham, MA, USA) transfection reagent. The secreted protein was purified using a four-step protocol. Clarified culture medium was precipitated with ammonium sulfate added to a final concentration of 1.5 M and centrifuged (235,000× g, 60 min at 4 °C). The supernatant after centrifugation was applied on a HiTrap Phenyl column (GE Healthcare, Chicago, IL, USA) equilibrated with buffer A (25 mM Tris, 1 mM DTT; pH 7.5) with 1.5 M ammonium sulfate. Bound proteins were eluted with a linear gradient of buffer A. The eluted proteins were dialyzed overnight in buffer A and loaded on a CaptoQ ImpRes column (GE Healthcare) equilibrated with buffer A with 50 mM NaCl. The bound proteins were eluted with a linear gradient of buffer A with 1 M NaCl. The fractions containing exTrkB protein were pooled, and MnCl2 and CaCl2 (1mM final concentration each) were added. The sample was purified on a HiTrap Con A 4B column (GE Healthcare) equilibrated with buffer B (25 mM Tris, 0.5 M NaCl, 1 mM MnCl2, 1 mM CaCl2; pH 7.5) and eluted with buffer C (25 mM Tris, 0.1 M NaCl, 0.4 M α-D-glucopyranoside; pH 6.5). To improve the protein recovery, buffer C flow was paused nine times during elution. The eluted fractions were concentrated and purified by size-exclusion chromatography on a HiLoad 16/600 Superdex 200 column (GE Healthcare) in buffer A with 0.5 M NaCl. The protein samples were concentrated to 1 mg/mL, and buffer was exchanged (PBS; pH 7.4). Samples were frozen in liquid nitrogen and stored at −80 °C. The protein purity was estimated by SDS–PAGE followed by Coomassie Brilliant Blue staining. The protein concentration was determined from the absorption at 280 nm using an UV NanoDrop 1000 spectrophotometer (Thermo Scientific).
The exTrkB was labeled with a Monolith Protein Labeling Kit RED-NHS 2nd Generation (NanoTemper Technologies GmbH, Munich, Germany) according to the manufacturer’s protocol. The labelling efficiency was always determined spectrophotometrically with NanoPhotometer® NP80 (Impel) in line with the manufacturer’s recommendations. Labelled exTrkB protein was aliquoted and stored at −80 °C to avoid repeated freeze–thaw cycles. Before analysis, the exTrkB protein was thawed on ice and diluted with MST buffer (50 mM Tris pH = 8; 150 mM NaCl; 10 mM MgCl2; 0.1% Tween20) to the desired concentration.
For primary screening (single-point MST experiments for signal amplitude determination), each of the 987 screened compounds were diluted in MST buffer + 0.1% Tween20 to a final concentration of 0.5 mM. The tested compounds were mixed with exTrkB solution (the final concentration of exTrkB was 20 nM) and centrifuged (10,000× g, 4 min at 4 °C) to eliminate protein and compound aggregates. Before loading to capillaries (Monolith NT.115 Capillaries, NanoTemper Technologies GmbH), the samples were incubated for 5 min at 25 °C and then placed into the MST apparatus (Monolith, NanoTemper Technologies GmbH). The experiments were performed using nano-blue excitation, LED light adjusted to 20% excitation power, and MST power set to medium, and the fluorescence signal during thermophoresis was detected after 30 s. Single-point MST experiments were performed by the determination of the amplitude signal between the unbound and bound state between the molecule and exTrkB, which was analyzed using the MO.Control Software version 1.6 (NanoTemper Technologies GmbH). A reference sample containing only exTrkB and the equivalent DMSO concentration (v/v) was included in each individual MST experiment. At least three technical replicates were prepared for each of the tested compounds. A binding affinity study was performed for 113 of the selected compounds at 16 concentration points. […]

[1] = test system: RA-differentiated SH-SY5Y cells; assay: Cytoprotection against MPP+-induced cytotoxicity; format: cell-based; conditions: MPP+ 0.5 mM, compounds 0.3, 1, 3 μM, BDNF 1, 10, 100 ng/mL, 72 h + 72 h
Protocol: To differentiate SH-SY5Y, cells were seeded in a cell culture flask at a density of 10,000 cells/cm^2 in standard growth medium containing 10 μM retinoic acid (RA; MilliporeSigma) and cultured for 7 consecutive days. Then, differentiated cells were harvested by trypsinization (Trypsin-EDTA 1×, 3 min at 37 °C), centrifuged (250× g; 5 min at 25 °C) and counted. The desired experiment cells were seeded in differentiation medium (MEM:Ham’s F12 growth medium +10 μM RA) in multi-well plates at the following densities: 1,000,000 cells/well on a 6-well plate for lysate collection and immunoblot analysis, and 12,000 cells/well into a PDL-treated 96-well plate (BioCoat™, Corning Inc.) for neuroprotection experiments.
The experiment design was adopted from the article published by Presgraves et al., (2004), with the following modifications. Differentiated SH-SY5Y were prepared as described in Section 4.3.1. On the day of the experiment (Day 0), culture medium containing 10 μM RA was changed for treatment medium composed of MEM:HAM’S F12 (1:1 v/v), 1 × Antibiotic-Antimycotic, and 1 × MEM Non-Essential Amino Acids, with the FBS reduced to 0.5%. In this step, RealTime-Glo™ reagents (Promega, Madison, WI, USA) were added to the treatment medium (to a final concentration of 0.5 × ). Cell viability was measured after 1 h of incubation at 37 °C using a luminometer (VICTOR Light 1420-060) for normalization. Then, the tested compounds and BDNF were diluted in culturing medium as 2 × concentrate (final concentrations of 0.3, 1, and 3 μM for the small molecular compounds and 1, 10, and 100 ng/mL for BDNF) and added into wells for 72 h of incubation (volume, 100 μL/well). Then (Day 3), the treatment medium was replaced with fresh medium containing 0.5 × RealTime-Glo™ reagents (volume, 100 μL/well), and the cell viability was measured for normalization. Then, compounds and BDNF were added as 4 × concentrates (volume, 50 μL/well). In addition, MPP^+ was also diluted in treatment medium and added to the wells as a 4 × concentrate (final concentration, 0.5 mM; volume, 50 μL/well). The cells were incubated for a further 72 h at 37 °C. On Day 6, the cell viability was measured 1 h after replacing the medium with the medium containing 0.5 × RealTime-Glo™ (volume 100 μL/well). The experiments were performed with three biological independent replicates, and the final cell viability (endpoint, Day 6) was normalized to the normalized cell viability calculated on Day 3.

T1 sequence (Q16620 32-430): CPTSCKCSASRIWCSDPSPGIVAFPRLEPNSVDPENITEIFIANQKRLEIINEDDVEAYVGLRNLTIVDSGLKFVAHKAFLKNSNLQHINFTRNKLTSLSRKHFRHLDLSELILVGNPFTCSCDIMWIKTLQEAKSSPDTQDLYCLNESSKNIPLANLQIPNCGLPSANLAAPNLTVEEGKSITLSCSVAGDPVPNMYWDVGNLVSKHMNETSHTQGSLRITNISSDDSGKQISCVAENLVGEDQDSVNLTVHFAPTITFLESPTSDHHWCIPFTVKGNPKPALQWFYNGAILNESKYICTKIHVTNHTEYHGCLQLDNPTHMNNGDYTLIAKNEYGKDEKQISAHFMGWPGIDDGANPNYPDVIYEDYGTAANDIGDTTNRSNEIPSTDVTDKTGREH

Molecule | Kd (exTrkB) | Cytoprotective effect (cell viability) [1] | Cytoprotective effect (cell viability) ([1]; listed as CPL503051)
O=c1cc(-c2ccccc2)oc2c(O)c(O)ccc12 [7,8-DHF, 7,8-dihydroxyflavone] | 1.3 µM | not able to protect; also recorded: not able to confirm any cytoprotective action | –
C=CC(C)(C)c1[nH]c2ccccc2c1C1=C(O)C(=O)C(c2c[nH]c3c(CC=C(C)C)cccc23)=C(O)C1=O [DMAQ-B1] | 5.6 µM | did not demonstrate any cytoprotective effect | –
O=C1C(O)=C(c2c[nH]c3ccccc23)C(=O)C(O)=C1c1c[nH]c2ccccc12 [CPL503052, didemethylasterriquinone D] | 2.6 µM | no cytoprotective properties | did not demonstrate any cytoprotective effect
B1 | 0.093 µM | dose-dependent cytoprotective effect | –
